# Measurements from US20230339983A1, “FLUORESCENT COMPOUNDS SPECIFIC FOR PLURIPOTENT STEM CELLS AND REPROGRAMMING-READY CELLS AND METHODS OF USING THE SAME” (Agency for Science, Technology and Research, priority 2018, published 2023).
# What was measured:
# [1] = system: BJ human fibroblasts; assay: Staining of BJ fibroblasts reprogrammed with lentiviral Yamanaka factors; type: cell-based
# From the text: iPS cells were also generated from DPSCs with the traditional protocol involving retroviral vectors expressing OCT4, SOX2, KLF4, and C-MYC (Sugii, et al. (2011). Nature Protoc 6(3):346-358). BJ human neonatal fibroblasts were reprogrammed using lentiviral OCT4, SOX2, KLF4, and C-MYC as described previously (Toh, et al. (2016). Cell Rep 15(12):2597-2607).
# We also tested whether BDL-E5 worked for commonly used reprogramming methods and cell type. DPSCs were infected with retroviral vectors expressing four Yamanaka factors, and plated onto MEF. […] In addition, BJ human fibroblasts were reprogrammed with lentiviral Yamanaka factors.
# [2] = system: reprogramming ASCs; assay: BDL-E5 live staining time course of episomally reprogrammed ASCs on MG; type: cell-based, human
# Description: (§1) Episomal plasmids developed by Yamanaka's lab were obtained from Addgene: pCXLEhOct3/4-shp53-F (Addgene #27077), pCXLE-hSK (Addgene #27078), pCXLE-hUL (Addgene #27080) and pCXLE-EGFP (Addgene #27082) (Okita, et al. (2011). Nat Methods 8, 409-412). 1×10^6 cells were suspended together with 1 μg of each episomal vector in Nucleofector solution supplied in the Nucleofector Kit R (Lonza). Then the cells were transfected with the Program FF-113 on a Nucleofector 2b Device. The transfected cells were then cultured in ASC or DPSC medium (MSC medium) supplemented with 0.5 mM sodium butyrate, with daily media change. On Day 7 dpn, 1×10^5 viable cells were seeded over MEF feeders (GlobalStem) into one well of a 6-well plate for feeder-based iPS derivation; 2×10^5 viable cells were seeded for feeder-free iPS derivation into one well of a 6-well plate pre-coated with Matrigel (Corning). The next day, MSC medium was changed to feeder-based hES medium (DMEM/F12 supplemented with 20% knock out serum replacement, 1% GlutaMAX, 1% NEAA, Pen/Strep, 0.1 mM p-mercaptoethanol and 10 ng/ml b-FGF) or to feeder-free mTeSR1 (StemCell Technologies), supplemented with sodium butyrate. At 12 dpn, supplementation of sodium butyrate was stopped, and conditioned further with SMC4 cocktail (consisting of small molecules: PD0325901, CHIR99021, Thiazovivin, and SB431542 (FOCUS Biomolecules)) in hES medium/mTeSR1. This media supplement was continued until initial colony formation began.
# (§2) Reprogrammed cells were immune-stained with fluorescent live cell stain TRA-1-60 (R&D Systems, GloLIVE NL557) as per manufacturer's instructions. After incubating with the live staining antibodies for 30 min and Hoechst 33342 for 10 min, cells were washed 3 times with PBS and images with the Cy5 and DAPI channels, respectively, were immediately captured.
# (§3) Further experiments were carried out using BDL-E5. To determine whether BDL-E5 identifies the early stages of pluripotency, ASCs and DPSCs were reprogrammed using nucleofection of episomal vectors, and seeded onto MG-coated plates (feeder-free, viral-free reprogramming method). […]
# [3] = system: reprogramming DPSCs at 7 dpn; assay: Fluorescent subcellular organelle co-staining; type: cell-based, human; details: confocal; ER, Golgi, lysosome, mitochondria marker dyes
# From the text: Reprogrammed DPSCs at 7 dpn on MG were stained for cell organelle marker dyes (Molecular Probes) for endoplasmic reticulum (ER) (ER-Tracker™ Green (BODIPY® FL Glibenclamide)), Golgi complex (BODIPY® FL C5-Ceramide (N-(4,4-Difluoro-5,7-Dimethyl-4-Bora-3a,4a-Diaza-s-Indacene-3-Pentanoyl)Sphingosine)), lysosome (LysoTracker® Green DND-26), or mitochondria (MitoTracker® Green FM). Confocal images were taken to visualize the staining.
# To determine the subcellular organelle localization of BDL-E5 in reprogramming cells, 7 dpn DPSCs on MG were stained for BDL-E5 and organelle marker dyes for endoplasmic reticulum (ER), Golgi complex, lysosome, or mitochondria.
# [4] = system: reprogrammed SC-ASCs and VS-ASCs; assay: FACS of reprogrammed ASCs stained with BDL-E5 at 14 dpn and iPS colony count; type: cell-based, human; details: for iPS colonies from BDL-E5+ versus BDL-E5- sorted cells: seeded on MEF; for percentage of cells staining negatively / percentage of cells staining positively: FACS at 14 dpn
# From the text: WAT was isolated from subcutaneous (abdominal region) and visceral (omental region) depots from 2 human volunteers (S15-S16, undergoing bariatric surgery, with approval by the National Healthcare Group Domain Specific Review Board at National Healthcare Group, Singapore) as described previously (Ong, et al. (2014). Stem Cell Reports 2, 171-179; Takeda, et al. (2016). Diabetes 65, 1164-1178). […]. ASCs were isolated from WAT and cultured, as previously described (Sugii, et al. (2011). Nature Protoc 6, 346-358). Cells only up to passage 5 were used for experiments. MSC cell surface markers and multipotency of ASCs used herein were confirmed by flow cytometry and differentiation assays, respectively (Ong, et al. (2014). Stem Cell Reports 2, 171-179).
# Reprogrammed ASCs and DPSCs, AiPS and DiPS on D7 or D14 dpn were stained with BDL-E5 for 1 hour and then harvested using TrypLE and resuspended in 1×PBS. The cells were then subjected to FACS in the MoFlo XDP Cell Sorter (Beckman Coulter) under sterile conditions.
# Next, the inventors investigated whether the probe was useful in assisting reprogramming selection of obese patient-derived ASCs from subcutaneous (SC) and visceral (VS) fat depots. […] FIG. 10A (iii) and (iv) represents the unstained ASCs. BDL-E5^+ and BDL-E5^− cells sorted using FACS were seeded onto MEF-coated plates.
# To investigate the quality of the BDL-E5^+ generated iPS cells, the iPS colonies were passaged for several generations. As shown in FIG. 10B(i), ASC-derived BDL-E5^+ colonies remained well self-renewed and TRA-1-60 positive for subsequent passages.
# [5] = system: reprogramming DPSCs; assay: BDL-E5 live staining time course of episomally reprogrammed DPSCs on MG; type: cell-based, human
# Description: as §1, §2, §3
smiles,measurement,setting,value
COc1cc(F)c(/C=C/c2cc(C)c3n2[B-](F)(F)[N+]2=C(CCC(=O)NCCN(C)C)C=CC2=C3)cc1OC [BDL-E5],staining of reprogramming versus non-reprogramming cells,[1],"successfully stained reprogramming, but not non-reprogramming cells"
same,staining strength compared with TRA-1-60,[1],stronger than that of TRA-1-60
same,"intensity of fluorescence of staining at 7, 14, 21, 28 dpn",[2]; iPS colonies formed from ASCs,increased with increasing time
same,fate of stained cells tracked in the same field of view until colony formation,"[2]; reprogrammed ASCs, staining every 48 h, 10-24 dpn",only cells staining positive for BDL-E5 formed iPS colonies
same,time at which positive cells/colonies were found,"[2]; reprogramming ASCs, MG-coated plates, episomal feeder-free",around 14 dpn
same,subcellular organelle localization,[3],co-localize significantly with Golgi complex staining
same,iPS colonies from BDL-E5+ versus BDL-E5- sorted cells,[4]; SC-ASCs sorted at 14 dpn,gave rise to more colonies than the BDL-E5^− population
same,percentage of cells staining negatively,[4]; SC-ASCs,~11%
same,percentage of cells staining positively,[4]; SC-ASCs,~33%
same,iPS colonies from BDL-E5+ versus BDL-E5- sorted cells,[4]; VS-ASCs sorted at 14 dpn,at least some BDL-E5^+ VS-ASCs gave rise to iPS colonies
same,percentage of cells staining negatively,[4]; VS-ASCs,~24%
same,percentage of cells staining positively,[4]; VS-ASCs,~19%
same,"intensity of fluorescence of staining at 7, 14, 21, 28 dpn",[5]; iPS colonies formed from DPSCs,increased with increasing time
same,fate of stained cells tracked in the same field of view until colony formation,"[5]; reprogrammed DPSCs, staining every 48 h, 10-24 dpn",only cells staining positive for BDL-E5 formed iPS colonies
same,time at which positive cells/colonies were found,"[5]; reprogramming DPSCs, MG-coated plates, episomal feeder-free",7 dpn
